Values after ≈ are worked out from the molar mass of the structure shown. Residues, ends and D or L forms follow the SMILES beside them.
tested on: Escherichia coli; type: cell-based
Experimental: Minimum Inhibitory Concentration (MIC) of these antibacterial peptides (1) to (5) against Staphylococcus aureus, methicillin resistant Staphylococcus aureus (MRSA), Escherichia coli and Pseudomonas aeruginosa was determined.

MIC E coli	SMILES
4 µg/mL (≈ 3.65 µM)	CC[C@H](C)[C@H](NC(=O)[C@H](C)NC(=O)[C@H](CC(C)C)NC(=O)[C@H](CCCNC(=N)N)NC(=O)[C@H](CC(C)C)NC(=O)[C@H](C)N)C(=O)N[C@@H](CCCNC(=N)N)C(=O)N[C@@H](CCCCN)C(=O)N[C@@H](CCCNC(=N)N)C(N)=O [present peptide (1), Ala Leu Arg Leu Ala Ile Arg Lys Arg] (H-ALRLAIRKR-NH2)
6 µg/mL (≈ 5.7 µM)	CC[C@H](C)[C@H](NC(=O)[C@H](C)NC(=O)[C@H](CC(C)C)NC(=O)[C@H](CC(C)C)NC(=O)[C@H](CC(C)C)NC(=O)[C@H](C)N)C(=O)N[C@@H](CCCNC(=N)N)C(=O)N[C@@H](CCCCN)C(=O)N[C@@H](CCCNC(=N)N)C(N)=O [present peptide (2), Ala Leu Leu Leu Ala Ile Arg Lys Arg] (H-ALLLAIRKR-NH2)
5 µg/mL (≈ 4.44 µM)	CC[C@H](C)[C@H](NC(=O)[C@H](C)NC(=O)[C@H](CC(C)C)NC(=O)[C@H](CC(C)C)NC(=O)[C@H](Cc1c[nH]c2ccccc12)NC(=O)[C@H](C)N)C(=O)N[C@@H](CCCNC(=N)N)C(=O)N[C@@H](CCCCN)C(=O)N[C@@H](CCCNC(=N)N)C(N)=O [present peptide (3), Ala Trp Leu Leu Ala Ile Arg Lys Arg] (H-AWLLAIRKR-NH2)
4 µg/mL (≈ 3.63 µM)	CC[C@H](C)[C@H](NC(=O)[C@H](C)NC(=O)[C@H](CC(C)C)NC(=O)[C@H](Cc1ccc(O)cc1)NC(=O)[C@H](CC(C)C)NC(=O)[C@H](C)N)C(=O)N[C@@H](CCCNC(=N)N)C(=O)N[C@@H](CCCCN)C(=O)N[C@@H](CCCNC(=N)N)C(N)=O [present peptide (4), Ala Leu Trp Leu Ala Ile Arg Lys Arg]
10 µg/mL (≈ 8.89 µM)	CC[C@H](C)[C@H](NC(=O)[C@H](C)NC(=O)[C@H](CC(C)C)NC(=O)[C@H](Cc1c[nH]c2ccccc12)NC(=O)[C@H](CC(C)C)NC(=O)[C@H](C)N)C(=O)N[C@@H](CCCNC(=N)N)C(=O)N[C@@H](CCCCN)C(=O)N[C@@H](CCCNC(=N)N)C(N)=O [present peptide (5), Ala Leu Trp Leu Ala Ile Arg Lys Arg] (H-ALWLAIRKR-NH2)
